Where a name gives a salt, the structure may show the parent alone.
Assays:
DDR1 kinase [1] = biological target: T1, DDR1 kinase (Homo sapiens, UniProt Q08345); experiment: Evaluation of DDR1 kinase inhibition in DDR1-expressing U2OS cells (type I collagen stimulation, PathHunter detection); type: cell-based; parameters: host or cells: U2OS; settings: type I collagen 50 µg/mL stimulation, duplicate, read-out: DDR-1 IC50
Target sequence in this assay (Q08345 19-913): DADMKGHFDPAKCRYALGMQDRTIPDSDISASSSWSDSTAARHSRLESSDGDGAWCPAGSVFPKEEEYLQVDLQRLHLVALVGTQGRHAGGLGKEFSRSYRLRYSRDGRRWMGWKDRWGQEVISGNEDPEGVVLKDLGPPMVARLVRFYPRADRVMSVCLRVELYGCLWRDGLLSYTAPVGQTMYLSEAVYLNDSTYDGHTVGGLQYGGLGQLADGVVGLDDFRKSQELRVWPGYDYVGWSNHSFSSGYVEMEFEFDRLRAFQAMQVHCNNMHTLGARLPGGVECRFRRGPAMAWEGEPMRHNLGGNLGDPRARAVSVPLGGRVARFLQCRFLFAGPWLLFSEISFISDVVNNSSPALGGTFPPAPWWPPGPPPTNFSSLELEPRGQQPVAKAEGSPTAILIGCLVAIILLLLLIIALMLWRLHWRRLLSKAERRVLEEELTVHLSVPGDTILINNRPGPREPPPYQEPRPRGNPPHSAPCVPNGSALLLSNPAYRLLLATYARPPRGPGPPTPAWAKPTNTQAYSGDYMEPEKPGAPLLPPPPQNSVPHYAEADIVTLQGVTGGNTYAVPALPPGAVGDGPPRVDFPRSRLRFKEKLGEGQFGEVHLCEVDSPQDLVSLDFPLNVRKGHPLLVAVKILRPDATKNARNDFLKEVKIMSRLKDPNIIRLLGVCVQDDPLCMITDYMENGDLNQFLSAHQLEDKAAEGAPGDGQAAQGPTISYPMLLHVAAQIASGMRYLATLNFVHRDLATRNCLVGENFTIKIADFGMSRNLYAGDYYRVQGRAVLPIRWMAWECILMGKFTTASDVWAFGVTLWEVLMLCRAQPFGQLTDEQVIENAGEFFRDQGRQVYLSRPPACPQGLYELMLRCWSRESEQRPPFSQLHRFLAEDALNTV

DDR1 kinase [2] = biological target: T1, DDR1 kinase; experiment: Evaluation of DDR1 kinase inhibition (LANCE Ultra TR-FRET kinase assay); type: biochemical; parameters: purchased Carna Biosciences 08-113; settings: DDR1 protein 0.5 nM, LANCE Ultra ULight-poly GAT substrate, 2 hours at room temperature, duplicate; read-out: DDR-1 IC50
Target sequence in this assay (Q08345 19-876 isoform Q08345-2 limits assumed): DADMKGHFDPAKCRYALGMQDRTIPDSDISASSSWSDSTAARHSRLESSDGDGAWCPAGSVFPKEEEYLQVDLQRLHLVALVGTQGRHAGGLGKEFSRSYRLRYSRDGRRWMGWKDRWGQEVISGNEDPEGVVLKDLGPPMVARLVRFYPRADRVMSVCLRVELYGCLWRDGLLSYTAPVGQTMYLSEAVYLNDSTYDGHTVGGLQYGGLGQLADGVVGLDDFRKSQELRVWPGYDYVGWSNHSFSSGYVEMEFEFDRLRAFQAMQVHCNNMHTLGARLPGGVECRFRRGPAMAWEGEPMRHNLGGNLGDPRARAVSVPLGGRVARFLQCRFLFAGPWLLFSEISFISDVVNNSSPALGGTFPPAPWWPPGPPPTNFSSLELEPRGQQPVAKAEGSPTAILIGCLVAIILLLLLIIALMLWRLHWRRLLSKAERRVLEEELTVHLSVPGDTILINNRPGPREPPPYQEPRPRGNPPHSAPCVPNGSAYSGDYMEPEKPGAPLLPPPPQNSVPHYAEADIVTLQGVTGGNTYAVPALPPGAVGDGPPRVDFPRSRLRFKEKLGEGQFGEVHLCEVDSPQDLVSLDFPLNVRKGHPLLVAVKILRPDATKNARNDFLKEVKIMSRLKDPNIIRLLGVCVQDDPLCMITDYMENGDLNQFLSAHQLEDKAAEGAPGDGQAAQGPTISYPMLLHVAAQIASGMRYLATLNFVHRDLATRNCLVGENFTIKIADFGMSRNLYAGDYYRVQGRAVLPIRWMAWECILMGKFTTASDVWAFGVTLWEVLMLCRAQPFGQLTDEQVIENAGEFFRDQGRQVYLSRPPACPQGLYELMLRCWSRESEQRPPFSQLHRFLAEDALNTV

SMILES | IC50 (DDR1 kinase [1]) [nM] | IC50 (DDR1 kinase [2]) [nM]
Nc1cc(C(=O)N2CC(c3nn(CC(=O)N4CCC(F)(F)CC4)c4ccccc34)C2)c(F)cn1 [Compound E-257, 2-{3-[1-(2-amino-5-fluoropyridine-4-carbonyl)azetidin-3-yl]-1H-indazol-1-yl}-1-(4,4-difluoropiperidin-1-yl)ethan-1-one] | 42 | 13
O=C(Cn1nc(C2CN(C(=O)c3ccnc(NC4CC4)c3)C2)c2c(F)cc(F)cc21)NCC(F)(F)F [Compound E-30, 2-(3-{1-[2-(cyclopropylamino)pyridine-4-carbonyl]azetidin-3-yl}-4,6-difluoro-1H-indazol-1-yl)-N-(2,2,2-trifluoroethyl)acetamide hydrochloride] | 74 | 4.1
Nc1cc(C(=O)N2CC(c3nn(Cc4nc(-c5cccc(C(F)(F)F)c5)no4)c4cccc(F)c34)C2)ccn1 [Compound E-55, 4-{3-[4-fluoro-1-({3-[3-(trifluoromethyl)phenyl]-1,2,4-oxadiazol-5-yl}methyl)-1H-indazol-3-yl]azetidine-1-carbonyl}pyridin-2-amine] | 150 | 23
Nc1ncc(C(=O)N2CC(c3nn(CC(=O)N4CCC[C@H]4C(F)(F)F)c4cc(F)cc(F)c34)C2)o1 [Compound E-105, 2-{3-[1-(2-amino-1,3-oxazole-5-carbonyl)azetidin-3-yl]-4,6-difluoro-1H-indazol-1-yl}-1-[(28)-2-(trifluoromethyl)pyrrolidin-1-yl]ethan-1-one] | 370 | 79
CN(CC1CC1)C(=O)Cn1nc(C2CN(C(=O)c3ccnc(N)c3)C2)c2ccccc21 [Compound E-229, 2-{3-[1-(2-aminopyridine-4-carbonyl)azetidin-3-yl]-1H-indazol-1-yl}-N-(cyclopropylmethyl)-N-methylacetamide] | 81 | 6
O=C(Cn1nc(C2CN(C(=O)c3ccnc(NC4CC4)c3)C2)c2c(Cl)c(F)ccc21)NCC(F)(F)F [Compound E-1, 2-(4-chloro-3-{1-[2-(cycloropylamino)pyridine-4-carbonyl]azetidin-3-yl}-5-fluoro-1H-indazol-1-yl)-N-(2,2,2-trifluoroethyl)acetamide hydrochloride] | 78 | 0.4

Next, values leading:

IC50 (DDR1 kinase [1]) [nM] | IC50 (DDR1 kinase [2]) [nM] | SMILES
82 | 5.7 | Cc1ccc2c(n1)c(C1CN(C(=O)c3ccnc(NC4CC4)c3)C1)nn2CC(=O)N1CCC[C@H]1C(F)(F)F [Compound E-130, 2-(3-(1-[2-(cyclopropylamino)pyridine-4-carbonyl]azetidin-3-yl}-5-methyl-1H-pyrazolo[4,3-b}pyridin-1-yl)-1-[(2S)-2-(trifluoromethyl)pyrrolidin-1-yl]ethan-1-one]
170 | 24 | O=C(c1ccnc(NC2CC2)c1)N1CC(c2nn(CC(=O)N3CCC[C@H]3C(F)(F)F)c3cccnc23)C1 [Compound E-121, 2-(3-{1-[2-(cyclopropylamino)pyridine-4-carbonyl]azetidin-3-yl}-1H-pyrazolo[4,3-b]pyridin-1-yl)-1-[(2S)-2-(trifluoromethyl)pyrrolidin-1-yl]ethan-1-one]
150 | 2.3 | Cc1nc(N)sc1C(=O)N1CC(c2nn(CC(=O)N3CCC[C@H]3C(F)(F)F)c3ccccc23)C1 [Compound E-197, 2-(3-[1-(2-amino-4-methyl-1,3-thiazole-5-carbonyl)azetidin-3-yl]-1H-indazol-1-yl}-1-[(2S)-2-(trifluoromethyl)pyrrolidin-1-yl]ethan-1-one]
500 | 8.8 | Cc1nc(N)sc1C(=O)N1CC(c2nn(CC(=O)N3CCCC3COC(F)(F)F)c3cncc(F)c23)C1 [Compound E-183, 2-{3-[1-(2-amino-4-methyl-1,3-thiazole-5-carbonylazetidin-3-yl)-4-fluoro-1H-pyrazolo[3,4-c]pyridin-1-yl}-1-[(2S)-2-[(trifluoromethoxy)methyl]pyrrolidin-1-yl]ethan-1-one p-toluenesulfonate]
